Data from patent publication US20220040180A1, “KITS AND METHODS FOR TREATING CANCERS” (Spectrum Pharmaceuticals, Inc., priority 2018, published 2022).
Values belong to the compound of their own block, whether it stands above or below them.

How the values were obtained:
Format in all cases: physicochemical
[1] = Dynamic vapor sorption (DVS) hygroscopicity
Protocol: Dynamic Vapor Sorption (DVS) analysis was conducted on the DVS advantage (Surface measurement system, United Kingdom) analyzer at 25° C. and relative humidity of 0-90%.
10 mg of sample was placed in the wire mesh steam sorption balance pan and attached to the DVS-advantage dynamic vapor adsorption balance by the Surface Measurement Systems. […] After the completion of the sorption cycle, the sample was dried using the same procedure, during which the relative humidity was returned to a relative humidity […] all the time. The change in weight during the sorption/desorption cycle (repetition of 3 times) was recorded to determine the hygroscopicity of the sample.

[2] = Test Example 1: comparative solubility of amorphous and crystalline hydrochloride salt forms (HPLC); settings: 25° C., loading of 1.0 mg/mL; for Solubility, Water: LOD 0.1 μg/mL
Protocol: To compare the solubility of amorphous hydrochloride salt form and crystalline hydrochloride salt polymorphs, each of the polymorphs and amorphous form of the hydrochloride salt of the compound of chemical formula (1) prepared in Examples 4 to 6 was used to prepare samples under the following conditions according to non-ionized water and acidity (pH). Thereafter, each solution was analyzed by high performance liquid chromatography (HPLC) according to the measurement conditions of the content of the compound of chemical formula (1) to measure the dissolved amount (LOD: 0.1 μg/mL) based on the compound of chemical formula (1).
Specifically, 5 mg of each polymorph was added to 5 ml of water and mixed using a Voltamixer at 20-25° C. Thereafter, the filtrate obtained by filtrating using GH Polypro membrane Acrodisc, PALL (pore size 0.2 μm) was diluted with a dilution solvent for high performance liquid chromatography (HPLC) at a ratio of 1/100, to obtain the samples.

[3] = Test Example 2: comparative storage stability of hydrochloride salt forms, purity by HPLC
Protocol: High performance liquid chromatography (HPLC) was conducted on the Agilent 1100/1200 series HPLC Systems (Agilent, USA) analyzer for the purpose of purity and content analysis including stability test and the like. The analysis conditions of the HPLC are as follows.
To compare the stability of amorphous hydrochloride salt form and crystalline hydrochloride salt polymorphs, each of samples of the polymorphs and amorphous form of the hydrochloride salt of the compound of chemical formula (1) prepared in Examples 4 to 6 was left for 4 weeks under long term conditions (e.g., temperature of 25±2° C. and relative humidity of 60±5%) and accelerated conditions (e.g., temperature of 40° C. and relative humidity of 75%). Each sample was analyzed by high performance liquid chromatography (HPLC) according to the purity measurement conditions of the compound of chemical formula (1).

[4] = Behaviour under long-term, accelerated and harsh storage conditions (moisture absorption, stability of form)
[5] = Solubility in water of the compound of chemical formula (1); settings: amorphous free base
[6] = relative humidity range of 10-90%, 25° C.
[7] = 25 ± 2° C., 60 ± 5% RH, listed as HCl cryst. hydrate
[8] = 40 ± 2° C., 75 ± 5% RH, listed as HCl cryst. hydrate
[9] = 25 ± 2° C., 60 ± 5% RH, listed as HCl cryst. anhydrate
[10] = 40 ± 2° C., 75 ± 5% RH, listed as HCl cryst. anhydrate

SMILES: C=CC(=O)N1CCC(Oc2cc3c(Nc4ccc(Cl)c(Cl)c4F)ncnc3cc2OC)CC1 [Example 4, 1-(4-(4-(3,4-dichloro-2-fluorophenylamino)-7-methoxyquinazolin-6-yloxy)piperidin-1-yl)prop-2-en-1-one]
- hygroscopic degree (DVS) [1, 6]: about 0.4%
- hygroscopic degree (DVS) ([1]; relative humidity range of 10-90%, 25° C., listed as crystalline monohydrochloride monohydrate (1HCl.1H2O) form): very low
- Solubility, pH 1.2 ([2]; listed as HCl cryst. hydrate): 5 μg/mL
- Solubility, pH 2.0 ([2]; listed as HCl cryst. hydrate): 7 μg/mL
- Solubility, pH 4.0 ([2]; listed as HCl cryst. hydrate): 48 μg/mL
- Solubility, Water ([2]; listed as HCl cryst. hydrate): <LOD
- Purity (HPLC, %) 3 days [3, 7]: 99.2%
- Purity (HPLC, %) Start [3, 7]: 99.2%
- Purity (HPLC, %) Week 1 [3, 7]: 99.2%
- Purity (HPLC, %) Week 2 [3, 7]: 99.1%
- Purity (HPLC, %) Week 4 [3, 7]: 99.2%
- Purity (HPLC, %) 3 days [3, 8]: 99.3%
- Purity (HPLC, %) Start [3, 8]: 99.2%
- Purity (HPLC, %) Week 1 [3, 8]: 99.2%
- Purity (HPLC, %) Week 2 [3, 8]: 99.1%
- Purity (HPLC, %) Week 4 [3, 8]: 99.2%

SMILES: C=CC(=O)N1CCC(Oc2cc3c(Nc4ccc(Cl)c(Cl)c4F)ncnc3cc2OC)CC1 [Example 3, 1-(4-(4-(3,4-dichloro-2-fluorophenylamino)-7-methoxyquinazolin-6-yloxy)piperidin-1-yl)prop-2-en-1-one]
- hygroscopic degree (DVS) ([1]; relative humidity range of 0-90%, listed as crystalline anhydrous Form II): very low
- hygroscopic degree (DVS) [1, 6]: about 0.7%
- stability of the crystalline form on storage ([4]; long-term (25° C., 60% RH), accelerated (40° C., 75% RH) and harsh (60° C.) conditions): sufficiently stable

More lines, now with the values ahead:

- hygroscopic degree (DVS) [1, 6]: about 0.35%
- hygroscopic degree (DVS) ([1]; relative humidity range of 10-90%, 25° C., listed as crystalline anhydrous monohydrochloride (1HCl) form): very low
- Solubility, pH 1.2 ([2]; listed as HCl cryst. anhydrate): 92 μg/mL
- Solubility, pH 2.0 ([2]; listed as HCl cryst. anhydrate): 140 μg/mL
- Solubility, pH 4.0 ([2]; listed as HCl cryst. anhydrate): 74 μg/mL
- Solubility, Water ([2]; listed as HCl cryst. anhydrate): 20 µg/mL
- moisture absorption on storage ([4]; 25° C., 60% relative humidity and 40° C., 75% relative humidity): did not absorb moisture
- Purity (HPLC, %) 3 days [3, 9]: 99.4%
- Purity (HPLC, %) Start [3, 9]: 99.4%
- Purity (HPLC, %) Week 1 [3, 9]: 99.4%
- Purity (HPLC, %) Week 2 [3, 9]: 99.5%
- Purity (HPLC, %) Week 4 [3, 9]: 99.5%
- Purity (HPLC, %) 3 days [3, 10]: 99.4%
- Purity (HPLC, %) Start [3, 10]: 99.4%
- Purity (HPLC, %) Week 1 [3, 10]: 99.4%
- Purity (HPLC, %) Week 2 [3, 10]: 99.5%
- Purity (HPLC, %) Week 4 [3, 10]: 99.5%
SMILES: C=CC(=O)N1CCC(Oc2cc3c(Nc4ccc(Cl)c(Cl)c4F)ncnc3cc2OC)CC1 [Example 5, 1-(4-(4-(3,4-dichloro-2-fluorophenylamino)-7-methoxyquinazolin-6-yloxy)piperidin-1-yl)prop-2-en-1-one]

- Solubility, pH 1.2 ([2]; listed as HCl amorphous): 274 μg/mL
- Solubility, pH 2.0 ([2]; listed as HCl amorphous): 213 μg/mL
- Solubility, pH 4.0 ([2]; listed as HCl amorphous): 34 μg/mL
- Solubility, Water ([2]; listed as HCl amorphous): 53 µg/mL
SMILES: C=CC(=O)N1CCC(Oc2cc3c(Nc4ccc(Cl)c(Cl)c4F)ncnc3cc2OC)CC1 [Example 6, 1-(4-(4-(3,4-dichloro-2-fluorophenylamino)-7-methoxyquinazolin-6-yloxy)piperidin-1-yl)prop-2-en-1-one]

- hygroscopic degree (DVS) [1, 6]: 1-3%
- solubility [5]: < 1 µg/mL
SMILES: C=CC(=O)N1CCC(Oc2cc3c(Nc4ccc(Cl)c(Cl)c4F)ncnc3cc2OC)CC1 [Reference Example, 1-(4-(4-(3,4-dichloro-2-fluorophenylamino)-7-methoxyquinazolin-6-yloxy)piperidin-1-yl)prop-2-en-1-one]
